Measurements published in the NIST ThermoML archive (doi:10.1021/acs.jced.8b01135).

Assay: xn = mol fraction of the nth substance listed
Conditions: 102 kPa, Liquid; for speed of sound: Frequency=3 MHz, Single path-length method; for mass density: Vibrating tube method; for viscosity: Concentric cylinders viscometry

CCCC1CCCCC1 [1-cyclohexylpropane] + CCCCCCCCCCCC
Conditions	mass density [kg/m3]	speed of sound [m/s]	viscosity [mPa·s]
288.15 K, x1 = 0.1007	755.55	1317.5	–
288.15 K, x1 = 0.2001	758.92	1317.8	–
288.15 K, x1 = 0.3001	762.54	1318.2	–
288.15 K, x1 = 0.4011	766.49	1319.3	–
288.15 K, x1 = 0.5	770.63	1320.1	–
288.15 K, x1 = 0.6004	775.15	1320.9	–
288.15 K, x1 = 0.6995	780	1322.1	–
288.15 K, x1 = 0.7998	785.31	1323.8	–
288.15 K, x1 = 0.8997	791.13	1326.1	–
288.15 K, x1 = 1	797.42	1328.6	–
293.15 K, x1 = 0.1007	751.91	1297.9	1.44
293.15 K, x1 = 0.2001	755.26	1298.2	1.39
293.15 K, x1 = 0.3001	758.87	1298.6	1.34
293.15 K, x1 = 0.4011	762.8	1299.8	1.28
293.15 K, x1 = 0.5	766.92	1300.2	1.23
293.15 K, x1 = 0.6004	771.42	1300.8	1.18
293.15 K, x1 = 0.6995	776.23	1301.9	1.13
293.15 K, x1 = 0.7998	781.51	1303.4	1.08
293.15 K, x1 = 0.8997	787.31	1305.3	1.03
293.15 K, x1 = 1	793.53	1307.7	0.981
298.15 K, x1 = 0.1007	748.27	1278.4	–
298.15 K, x1 = 0.2001	751.61	1278.6	–
298.15 K, x1 = 0.3001	755.2	1279	–
298.15 K, x1 = 0.4011	759.11	1280.3	–
298.15 K, x1 = 0.5	763.2	1280.8	–
298.15 K, x1 = 0.6004	767.68	1280.8	–
298.15 K, x1 = 0.6995	772.46	1281.8	–
298.15 K, x1 = 0.7998	777.71	1283.1	–
298.15 K, x1 = 0.8997	783.46	1284.7	–
298.15 K, x1 = 1	789.63	1287.1	–
303.15 K, x1 = 0.1007	744.62	1259.1	1.23
303.15 K, x1 = 0.2001	747.95	1259.2	1.18
303.15 K, x1 = 0.3001	751.53	1259.5	1.14
303.15 K, x1 = 0.4011	755.41	1260.9	1.1
303.15 K, x1 = 0.5	759.48	1261.1	1.06
303.15 K, x1 = 0.6004	763.93	1261	1.02
303.15 K, x1 = 0.6995	768.68	1261.8	0.977
303.15 K, x1 = 0.7998	773.89	1262.9	0.936
303.15 K, x1 = 0.8997	779.6	1264.3	0.897
303.15 K, x1 = 1	785.72	1266.6	0.856
313.15 K, x1 = 0.1007	737.32	1221.1	1.05
313.15 K, x1 = 0.2001	740.61	1221.1	1.01
313.15 K, x1 = 0.3001	744.15	1221.3	0.979
313.15 K, x1 = 0.4011	747.98	1222.3	0.946
313.15 K, x1 = 0.5	752.01	1222.6	0.914
313.15 K, x1 = 0.6004	756.42	1222.1	0.882
313.15 K, x1 = 0.6995	761.11	1222.6	0.85
313.15 K, x1 = 0.7998	766.24	1223.3	0.818
313.15 K, x1 = 0.8997	771.86	1224.3	0.783
313.15 K, x1 = 1	777.88	1226.2	0.75
323.15 K, x1 = 0.1007	729.98	1183.9	0.909
323.15 K, x1 = 0.2001	733.24	1183.7	0.882
323.15 K, x1 = 0.3001	736.75	1183.8	0.856
323.15 K, x1 = 0.4011	740.52	1184.5	0.831
323.15 K, x1 = 0.5	744.5	1184.6	0.802
323.15 K, x1 = 0.6004	748.86	1183.9	0.776
323.15 K, x1 = 0.6995	753.49	1184.1	0.75
323.15 K, x1 = 0.7998	758.55	1184.6	0.721
323.15 K, x1 = 0.8997	764.09	1185.1	0.694
323.15 K, x1 = 1	770	1186.5	0.668
333.15 K, x1 = 0.1007	722.61	1147.6	0.792
333.15 K, x1 = 0.2001	725.82	1147.3	0.769
333.15 K, x1 = 0.3001	729.3	1147.3	0.75
333.15 K, x1 = 0.4011	733.02	1147.5	0.729
333.15 K, x1 = 0.5	736.95	1147.3	0.707
333.15 K, x1 = 0.6004	741.26	1146.7	0.685
333.15 K, x1 = 0.6995	745.82	1146.7	0.663
333.15 K, x1 = 0.7998	750.81	1146.8	0.64
333.15 K, x1 = 0.8997	756.27	1146.9	0.618
333.15 K, x1 = 1	762.09	1147.7	0.594
